Source: ChEMBL document CHEMBL2069240, “Design, solvent free synthesis, and antimicrobial evaluation of 1,4 dihydropyridines” (2012)
Values after ≈ are worked out from the molar mass of the structure shown.

Tests used:
[1] = tested on: Escherichia coli; test: Antibacterial activity against ampicillin-resistant Escherichia coli clinical isolate; assay type: functional
[2] = tested on: Escherichia coli; test: Antibacterial activity against Escherichia coli ATCC 25922; assay type: functional
[3] = tested on: Bacillus subtilis; test: Antibacterial activity against Bacillus subtilis ATCC 9372; assay type: functional
[4] = tested on: Staphylococcus aureus; test: Antibacterial activity against Staphylococcus aureus ATCC 25923; assay type: functional
[5] = tested on: Shigella dysenteriae; test: Antibacterial activity against Shigella dysenteriae ATCC 32412; assay type: functional
[6] = tested on: Enterococcus faecalis; test: Antibacterial activity against Enterococcus faecalis ATCC 51299; assay type: functional
[7] = tested on: Escherichia coli; test: Ratio of ampicillin MIC to compound MIC for ampicillin-resistant Escherichia coli clinical isolate; assay type: functional
[8] = tested on: Klebsiella pneumoniae; test: Antibacterial activity against Klebsiella pneumoniae ATCC 7761; assay type: functional
[9] = tested on: Salmonella typhi; test: Antibacterial activity against Salmonella typhi ATCC 700931; assay type: functional, Salmonella enterica subsp. enterica serovar Typhi; details: Salmonella enterica
[10] = tested on: Citrobacter koseri; test: Antibacterial activity against Citrobacter koseri ATCC 27028; assay type: functional
[11] = tested on: Pseudomonas aeruginosa; test: Antibacterial activity against Pseudomonas aeruginosa ATCC 27853; assay type: functional
[12] = tested on: Streptococcus pyogenes; test: Antibacterial activity against Streptococcus pyogenes ATCC 19615; assay type: functional
[13] = tested on: Klebsiella pneumoniae; test: Ratio of ampicillin MIC to compound MIC for ampicillin-resistant Klebsiella pneumoniae clinical isolate; assay type: functional
[14] = tested on: Klebsiella pneumoniae; test: Antibacterial activity against ampicillin-resistant Klebsiella pneumoniae clinical isolate; assay type: functional

`CCOC(=O)C1=C(C)N=C(C)/C(=C(/O)OCC)C1` showed an MIC [1] of 125 µg/mL (≈ 0.493 mM), an MIC [2] of 1250 µg/mL (≈ 4.93 mM) and an MIC [3] of 1250 µg/mL (≈ 4.93 mM). For the same molecule, the MIC [4] was 1250 µg/mL (≈ 4.93 mM), the MIC [5] was 1250 µg/mL (≈ 4.93 mM) and the MIC [6] was 1250 µg/mL (≈ 4.93 mM). It also gave a Ratio [7] of 4, an MIC [8] of 1250 µg/mL (≈ 4.93 mM) and an MIC [9] of 2500 µg/mL (≈ 9.87 mM). The MIC [10] was 1250 µg/mL (≈ 4.93 mM), the MIC [11] was 1250 µg/mL (≈ 4.93 mM) and the MIC [12] was 1250 µg/mL (≈ 4.93 mM). It also gave a Ratio [13] of 4 and an MIC [14] of 62.5 µg/mL (≈ 0.247 mM).
`CCOC(=O)C1=C(C)NC(C)=C(C(=O)OCC)C1c1ccccc1` gave an MIC [1] of 125 µg/mL (≈ 0.379 mM), an MIC [2] of 2500 µg/mL (≈ 7.59 mM) and an MIC [3] of 2500 µg/mL (≈ 7.59 mM). It also gave an MIC [4] of 1250 µg/mL (≈ 3.79 mM), an MIC [5] of 1250 µg/mL (≈ 3.79 mM) and an MIC [6] of 2500 µg/mL (≈ 7.59 mM). It also gave a Ratio [7] of 4, an MIC [8] of 1250 µg/mL (≈ 3.79 mM) and an MIC [9] of 2500 µg/mL (≈ 7.59 mM). It also gave an MIC [10] of 2500 µg/mL (≈ 7.59 mM), an MIC [11] of 1250 µg/mL (≈ 3.79 mM) and an MIC [12] of 2500 µg/mL (≈ 7.59 mM). For the same molecule, the Ratio [13] was 4 and the MIC [14] was 125 µg/mL (≈ 0.379 mM).
Molecule `CCOC(=O)C1=C(C)NC(C)=C(C(=O)OCC)C1c1ccccc1Cl` has an MIC [1] of 125 µg/mL (≈ 0.344 mM), an MIC [2] of 250 µg/mL (≈ 0.687 mM) and an MIC [3] of 250 µg/mL (≈ 0.687 mM). It also gave an MIC [4] of 125 µg/mL (≈ 0.344 mM), an MIC [5] of 250 µg/mL (≈ 0.687 mM) and an MIC [6] of 125 µg/mL (≈ 0.344 mM). It also gave a Ratio [7] of 4, an MIC [8] of 250 µg/mL (≈ 0.687 mM) and an MIC [9] of 250 µg/mL (≈ 0.687 mM). The MIC [10] was 250 µg/mL (≈ 0.687 mM), the MIC [11] was 250 µg/mL (≈ 0.687 mM) and the MIC [12] was 125 µg/mL (≈ 0.344 mM). The Ratio [13] was 4 and the MIC [14] was 125 µg/mL (≈ 0.344 mM).
`CCOC(=O)C1=C(C)NC(C)=C(C(=O)OCC)C1c1cccc([N+](=O)[O-])c1` showed an MIC [1] of 125 µg/mL (≈ 0.334 mM), an MIC [2] of 2500 µg/mL (≈ 6.68 mM) and an MIC [3] of 2500 µg/mL (≈ 6.68 mM). For the same molecule, the MIC [4] was 1250 µg/mL (≈ 3.34 mM), the MIC [5] was 2500 µg/mL (≈ 6.68 mM) and the MIC [6] was 2500 µg/mL (≈ 6.68 mM). For the same molecule, the Ratio [7] was 4, the MIC [8] was 2500 µg/mL (≈ 6.68 mM) and the MIC [9] was 1250 µg/mL (≈ 3.34 mM). The MIC [10] was 2500 µg/mL (≈ 6.68 mM), the MIC [11] was 5000 µg/mL (≈ 13.4 mM) and the MIC [12] was 2500 µg/mL (≈ 6.68 mM). For the same molecule, the Ratio [13] was 4 and the MIC [14] was 125 µg/mL (≈ 0.334 mM).
`CCOC(=O)C1=C(C)NC(C)=C(C(=O)OCC)C1c1ccc(O)cc1` was tested, and the MIC [1] was 125 µg/mL (≈ 0.362 mM), the MIC [2] was 2500 µg/mL (≈ 7.24 mM) and the MIC [3] was 2500 µg/mL (≈ 7.24 mM). It also gave an MIC [4] of 2500 µg/mL (≈ 7.24 mM), an MIC [5] of 5000 µg/mL (≈ 14.5 mM) and an MIC [6] of 2500 µg/mL (≈ 7.24 mM). The Ratio [7] was 4, the MIC [8] was 2500 µg/mL (≈ 7.24 mM) and the MIC [9] was 5000 µg/mL (≈ 14.5 mM). It also gave an MIC [10] of 2500 µg/mL (≈ 7.24 mM), an MIC [11] of 5000 µg/mL (≈ 14.5 mM) and an MIC [12] of 2500 µg/mL (≈ 7.24 mM). It also gave a Ratio [13] of 4 and an MIC [14] of 125 µg/mL (≈ 0.362 mM).
In the case of `CCOC(=O)C1=C(C)NC(C)=C(C(=O)OCC)C1c1ccccc1O`, the MIC [1] is reported as 62.5 µg/mL (≈ 0.181 mM), the MIC [2] is reported as 250 µg/mL (≈ 0.724 mM) and the MIC [3] is reported as 250 µg/mL (≈ 0.724 mM). It also gave an MIC [4] of 250 µg/mL (≈ 0.724 mM), an MIC [5] of 250 µg/mL (≈ 0.724 mM) and an MIC [6] of 250 µg/mL (≈ 0.724 mM). It also gave a Ratio [7] of 4, an MIC [8] of 125 µg/mL (≈ 0.362 mM) and an MIC [9] of 500 µg/mL (≈ 1.45 mM). The MIC [10] was 125 µg/mL (≈ 0.362 mM), the MIC [11] was 250 µg/mL (≈ 0.724 mM) and the MIC [12] was 250 µg/mL (≈ 0.724 mM). It also gave a Ratio [13] of 4 and an MIC [14] of 31.2 µg/mL (≈ 0.0905 mM).
`CCOC(=O)C1=C(C)NC(C)=C(C(=O)OCC)C1c1cc(OC)c(OC)c(OC)c1` showed an MIC [1] of 250 µg/mL (≈ 0.596 mM), an MIC [2] of 2500 µg/mL (≈ 5.96 mM) and an MIC [3] of 1250 µg/mL (≈ 2.98 mM). For the same molecule, the MIC [4] was 1250 µg/mL (≈ 2.98 mM), the MIC [5] was 1250 µg/mL (≈ 2.98 mM) and the MIC [6] was 1250 µg/mL (≈ 2.98 mM). The Ratio [7] was 4, the MIC [8] was 2500 µg/mL (≈ 5.96 mM) and the MIC [9] was 1250 µg/mL (≈ 2.98 mM). It also gave an MIC [10] of 2500 µg/mL (≈ 5.96 mM), an MIC [11] of 2500 µg/mL (≈ 5.96 mM) and an MIC [12] of 2500 µg/mL (≈ 5.96 mM). For the same molecule, the Ratio [13] was 4 and the MIC [14] was 250 µg/mL (≈ 0.596 mM).
